From patent publication US8461183B2, “PPAR agonist compounds, preparation and uses” (Genfit, priority 2008, dated 2013)

Key:
Assay type in all cases: cell-based
[1] = molecular target: T1, hPPARα (Homo sapiens, UniProt Q07869); test: Gal4-hPPARα chimera transactivation (luciferase) in COS-7 cells; conditions: COS-7 cells, Gal4-hPPARα, 24 hours; for EC50: luciferase, read-out: PPARα EC50; for Emax: relative to maximum activation obtained with fenofibric acid, read-out: PPARα TOP % (maximum activation)
T1 construct: corresponding to the DEF domains (structural elements of the promoter of the PPARs: D=hinge, EF=ligand fixation domain and AF2 fixation site); expressed in transfected cells; host or cells: COS-7 (monkey kidney fibroblasts)
T1 sequence (Q07869 239-466 limits assumed): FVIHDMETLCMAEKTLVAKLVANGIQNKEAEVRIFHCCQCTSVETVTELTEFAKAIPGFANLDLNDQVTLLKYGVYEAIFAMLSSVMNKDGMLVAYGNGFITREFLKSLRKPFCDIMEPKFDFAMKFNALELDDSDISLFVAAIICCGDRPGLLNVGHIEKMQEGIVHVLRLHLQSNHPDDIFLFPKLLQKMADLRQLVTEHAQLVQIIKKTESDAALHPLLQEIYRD
Description: (§1) Activation of PPARs is evaluated in vitro on a line of monkey kidney fibroblasts (COS-7) by measuring the transcriptional activity of chimeras consisting of the DNA binding domain of Gal4 transcription factor of yeast and of the ligand binding domain of the various PPARs of human origin (hPPAR).
(§2) The COS-7 cells are from ATCC and are cultivated in DMEM medium supplemented with 10% (vol/vol) of fetal calf serum, 1% of penicillin/streptomycin (Biochrom, AG), 1% of amino acids (Gibco) and 1% of sodium pyruvate (Gibco). The cells are incubated at 37° C. in a humid atmosphere containing 5% CO2.
(§3) The plasmids Gal4(RE)_TkpGL3, pGal4-hPPARα, pGal4-hPPARγ, pGal4-hPPARδ and pGal4-φ are described in the literature (Raspe E et al., 1999). The constructs pGal4-hPPARα, pGal4-hPPARγ and pGal4-hPPARδ were obtained by cloning, into the pGal4-φ vector, DNA fragments amplified by PCR corresponding to the DEF domains (structural elements of the promoter of the PPARs: D=hinge, EF=ligand fixation domain and AF2 fixation site) of the human nuclear receptors PPAα, PPARγ and PPARδ.
(§4) The adherent COS-7 cells are transfected with 40 μg of DNA per 225 cm^2 flask, with a pGal4-hPPAR/Gal4(RE)_TkpGL3 ratio of 1/10, in the presence of 10% of fetal calf serum. The cells are then detached and seeded in the absence of serum in 384-well plates (2×10^4 cells/well) then incubated for 4 hours at 37° C. The compounds are then diluted in a 96-well plate and then transferred to the 384-well plate. Activation with the test compounds is effected for a further 24 hours at 37° C. in the presence of 1% of synthetic serum Ultroser™ (Biosepra). These last 2 stages are automated by means of a Genesis Freedom 200™ station (Tecan). At the end of the experiment, the cells are lysed and the luciferase activity is determined using the Steady-Lite™ HTS (Perkin Elmer) according to the supplier's recommendations.
The test data are summarized in Table 8-1 below, which presents, for each compound, the values of maximum activation (TOP %) and the EC50 values measured for each isoform of PPAR. The values of maximum activation are expressed in percentages relative to the maximum activations obtained with reference agonists: fenofibric acid for PPARα, rosiglitazone for PPARγ and 2-methyl-4-((4-methyl-2-(4-trifluoromethylphenyl)-1,3-thiazol-5-yl)-methylsulfanyl)phenoxyacetic acid (also called GW501516) for PPARδ.

[2] = molecular target: T2, hPPARγ (Homo sapiens, UniProt P37231); test: Gal4-hPPARγ chimera transactivation (luciferase) in COS-7 cells; conditions: 24 hours; for EC50: luciferase, read-out: PPARγ EC50; for Emax: relative to maximum activation obtained with rosiglitazone, read-out: PPARγ TOP % (maximum activation)
T2 construct: corresponding to the DEF domains (structural elements of the promoter of the PPARs: D=hinge, EF=ligand fixation domain and AF2 fixation site); expressed in transfected cells; host or cells: COS-7 (monkey kidney fibroblasts)
T2 sequence (P37231 238-503 limits assumed): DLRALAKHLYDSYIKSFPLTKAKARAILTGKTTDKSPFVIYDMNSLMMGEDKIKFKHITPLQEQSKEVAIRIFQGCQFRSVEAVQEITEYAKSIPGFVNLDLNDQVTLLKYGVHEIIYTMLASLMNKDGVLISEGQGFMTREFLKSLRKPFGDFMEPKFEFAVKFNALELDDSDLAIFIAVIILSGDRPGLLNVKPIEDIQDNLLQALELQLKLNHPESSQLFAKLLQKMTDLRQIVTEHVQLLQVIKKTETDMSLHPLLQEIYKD
Description: as §1, §2, §3, §4
(§5) The test data are summarized in Table 8-1 below, which presents, for each compound, the values of maximum activation (TOP %) and the EC50 values measured for each isoform of PPAR.

[3] = molecular target: T3, hPPARδ (Homo sapiens, UniProt Q03181); test: Gal4-hPPARδ chimera transactivation (luciferase) in COS-7 cells; conditions: for EC50 / Emax: COS-7 cells, Gal4-hPPARδ, 24 hours; for EC50: luciferase, read-out: PPARδ EC50; for Emax: relative to maximum activation obtained with GW501516, read-out: PPARδ TOP % (maximum activation)
T3 construct: corresponding to the DEF domains (structural elements of the promoter of the PPARs: D=hinge, EF=ligand fixation domain and AF2 fixation site); expressed in transfected cells; host or cells: COS-7 (monkey kidney fibroblasts)
T3 sequence (Q03181 211-439 limits assumed): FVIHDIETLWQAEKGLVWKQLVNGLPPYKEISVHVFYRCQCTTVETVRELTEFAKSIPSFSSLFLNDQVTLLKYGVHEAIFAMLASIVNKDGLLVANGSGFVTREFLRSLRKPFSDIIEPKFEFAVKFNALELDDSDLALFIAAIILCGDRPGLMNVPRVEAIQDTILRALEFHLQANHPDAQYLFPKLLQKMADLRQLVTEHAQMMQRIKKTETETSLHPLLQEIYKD
Description: as §1, §2, §3, §4, §5

[4] = tested on: PPARδ target genes (PDK4, CPT1b, UCP2) in murine myocytes; test: Expression of PPARδ target genes in murine myocytes (differentiated C2C12 cells); conditions: 24 hours, Cpd 7 at 0.1, 1, 10 μM, Cpd 24 at 0.2, 2, 20 μM, normalized to 36B4
Description: The PPARδ agonist properties previously measured in vitro were evaluated by measuring, in murine myocytes, the expression of genes involved in lipid and carbohydrate metabolism and energy expenditure (PDK4, CPT1b, UCP2). Regulation of expression of these genes, in this cell type, is a direct consequence of the activation of PPARδ by the compounds according to the invention. The greater the increase in expression of the genes, the more the compound according to the invention is a stimulator of metabolism in muscle cells (Dressel U et al., 2003).
The C2C12 murine cells (from ECACC) are cultivated in DMEM medium (Gibco; 41965-039) supplemented with 1% L-glutamine (Gibco; 25030), 1% penicillin/streptomycin (VWR; BWSTL0022/100) and 10% decomplemented fetal calf serum (FCS. Gibco; 10270-106).
The cells are seeded in 24-well plates at a density of 50×10^3 cells/well. At confluence, the medium is replaced with a differentiation medium (base culture medium supplemented with 2% of horse serum (Gibco; 26050-088)) then culture is continued at 37° C. and 5% CO2 for 7 days in order to permit differentiation of the myoblasts into myocytes.
After 6 days of differentiation, the cells are put in a deprivation medium (base culture medium without serum) for 6 hours. The cells are then treated with the compounds according to the invention in the deprivation medium. The compounds according to the invention were tested at doses of 0.1, 1, 10 μM and 0.2, 2 and 20 μM respectively. The compounds according to the invention were dissolved in dimethylsulfoxide (DMSO, Sigma; D5879). The cells are treated for 24 hours at 37° C., 5% CO2. The effects for the compounds tested were compared with the effect of DMSO alone at a concentration of 0.1%.
These procedures were performed on the cells essentially as described in Example 10 (point c) of the Protocols.
The following primer pairs specific to the genes investigated were used: […]

Row | EC50 [1] [µM] | Emax [1] [%] | EC50 [2] [µM] | Emax [2] [%] | EC50 [3] [µM] | selectivity among hPPAR isoforms (hPPARδ) ([3]; Gal4-hPPAR chimeras, COS-7) | Emax [3] [%] | SMILES | expression of CPT1b [4] | expression of PDK4 [4] | expression of UCP2 [4]
1 | 39.6 | 28.9 | 46.8 | 20.6 | 0.55 | selective with respect to hPPARδ | 96.5 | CC(C)(C)Oc1nc(-c2ccccc2)ccc1COc1ccc(OCC(=O)O)cc1 [Cpd 7] | significant effects of stimulating expression | significant effects of stimulating expression | significant effects of stimulating expression
2 | 3.64 | 99.8 | 10.6 | 98.7 | 41.1 |  | 72.9 | COc1nc(-c2ccccc2)ccc1CNc1ccc(SC(F)(F)C(=O)O)cc1 [Cpd 27, 2-(4-(((2-methoxy-6-phenylpyridin-3-yl)methyl)amino)phenylthio)-2,2-difluoroethanoic acid] |  |  | 
3 | 13.7 | 34.3 | 2.76 | 54.8 | 19.8 |  | 16.1 | CC#CC(CC(=O)O)c1ccc(OCc2cc(-c3ccccc3)cnc2OC)cc1 (stereo not drawn) [Cpd 52, 3-(4-((2-methoxy-5-phenylpyridin-3-yl)methoxy)phenyl)hex-4-ynoic acid] |  |  | 
4 | 33.3 | 58.4 | 24.3 | 53.7 | 16.2 |  | 103 | COc1nc(-c2ccccc2)ccc1CNc1cccc(OCC(=O)O)c1 [Cpd 14, 2-(3-(((2-methoxy-6-phenylpyridin-3-yl)methyl)amino)phenoxy)ethanoic acid] |  |  | 
5 | 0.647 | 26.1 | 6.18 | 38.8 | 1.54 |  | 13.2 | COc1nc(-c2ccccc2)ccc1CNc1cc(C)c(OCC(=O)O)c(C)c1 [Cpd 35, 2-(4-(((2-methoxy-6-phenylpyridin-3-yl)methyl)amino)-2,6-dimethyl-phenoxy)ethanoic acid] |  |  | 
6 | 10.8 | 36.2 | 7.6 | 45.4 | 6.78 |  | 64.5 | CCSc1nc(-c2ccccc2)ccc1CNc1ccc(CCC(=O)O)cc1 [Cpd 38, 3-(4-(((2-(ethylthio)-6-phenylpyridin-3-yl)methyl)amino)phenyl)propanoic acid] |  |  | 
7 |  | 75.9 | 1.05 | 88.9 | 1.15 |  | 102 | COc1nc(-c2ccc(C(F)(F)F)cc2)ccc1CNc1ccc(SC(C)(C)C(=O)O)cc1 [Cpd 22, 2-(4-(((2-methoxy-6-(4-(trifluoromethyl)phenyl)pyridin-3-yl)methyl)amino)-phenylthio)-2-methylpropanoic acid] |  |  | 
8 | 5.43 | 30.3 | 11.8 | 17.3 | 0.489 |  | 70.7 | CC(C)(C)Oc1nc(-c2ccccc2)ccc1COc1ccc(OC(C)(C)C(=O)O)cc1 [Cpd 6, 2-(4-((2-tert-butyloxy-6-phenylpyridin-3-yl)methoxy)phenoxy)-2-methyl-propanoic acid] |  |  | 
9 | 14.3 | 34.2 | 30.2 | 43 | 5.26 |  | 87.7 | O=C(O)COc1ccc(OCc2ccc(-c3ccccc3)nc2N2CCCCC2)cc1 [Cpd 20, 2-(4-((6-phenyl-2-(piperidin-1-yl)pyridin-3-yl)methoxy)phenoxy)ethanoic acid] |  |  | 
10 | 0.929 | 55.5 | 2.64 | 72.2 | 2.38 |  | 80.6 | COc1cc(CCC(=O)O)ccc1NCc1ccc(-c2ccccc2)nc1OC [Cpd 44, 3-(3-methoxy-4-(((2-methoxy-6-phenylpyridin-3-yl)methyl)amino)-phenyl)-propanoic acid] |  |  | 
11 | 9.95 | 65.5 | 9.17 | 98.5 | 12.7 |  | 94.7 | COc1nc(-c2ccccc2)ccc1CSc1ccc(CCC(=O)O)cc1 [Cpd 37, 3-(4-((2-methoxy-6-phenylpyridin-3-yl)methylthio)phenyl)propanoic acid] |  |  | 
12 | 4.5 | 33.7 | 6.09 | 23.9 | 0.464 |  | 74.2 | CC(C)(C)Oc1nc(-c2ccccc2)ccc1CNc1ccc(OC(C)(C)C(=O)O)cc1 [Cpd 9, 2-(4-(((2-tert-butyloxy-6-phenylpyridin-3-yl)methyl)amino)phenoxy)-2-methyl-propanoic acid] |  |  | 
